Test results published in the supplement of paper PMC4862054.

Tests used:
MDA-MB-231 [1] = details: 72 h
Method: (§1)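 Drug sensitivity and resistance testing (DSRT) of breast cancer cell lines in 384-well plates, 5 concentrations in 10-fold dilutions over a compound-specific 10,000-fold range. After 72 h, cytotoxicity was read by CellTox Green fluorescence and viability by CellTiter-Glo luminescence (multiplexed), normalised to DMSO and benzethonium chloride controls. EC50 is the inflection point of the fitted dose-response curve (bottom asymptote free, so it can be relative for partial curves) and is censored at the highest tested concentration. Rows with DSS 0 (no meaningful response) were excluded.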

MDA-MB-468 [2] = details: 72 h
Method: as §1

MCF-10A [3] = details: 72 h
Method: as §1

MDA-MB-231 [4] = details: 72 h; remark: listed apart in the source
How it was run: (§2)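 For viability and cell death testing, 384-well plates carried compound at 5 concentrations in 10-fold steps over a compound-specific 10,000-fold range, and breast cancer cell lines were seeded in 20 µl suspension. After 72 h incubation, cell death was read by CellTox Green fluorescence (485/520 nm) before viability was read by CellTiter-Glo luminescence. EC50 was fitted from the dose-response curves and censored at the top concentration. Normalisation on each plate was to 0.1 % DMSO and a positive kill control.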

HDQ-P1 [5] = details: 72 h
How it was run: as §2

BT-474 [6] = details: 72 h
How it was run: as §2

BT-549 [7] = details: 72 h
How it was run: as §2

MCF-10A [8] = details: 72 h; remark: listed apart in the source
How it was run: as §2

MDA-MB-231 [9] = assay: normalised viability (% of control), CellTiter-Blue; higher = more viable cells (100 = DMSO, 0 = benzethonium chloride kill control); details: incubation time: 72 h
How it was run: (§3)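 Each entry is normalised viability at a single listed concentration within a series. It comes from breast cancer cell lines incubated 72 h with compound in 384-well plates, then measured with CellTiter-Blue fluorescence at 560/590 nm. Every plate was normalised between vehicle (100) and a positive kill control (0).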

HCC1937 [10] = assay: as above; details: incubation time: 72 h
How it was run: as §3

Hs578T [11] = assay: as above; details: incubation time: 72 h
How it was run: as §3

CAL-51 [12] = assay: as above; details: incubation time: 72 h
How it was run: as §3

CAL-85-1 [13] = assay: as above; details: incubation time: 72 h
How it was run: as §3

MFM-223 [14] = assay: as above; details: incubation time: 72 h
How it was run: as §3

MDA-MB-436 [15] = assay: as above; details: incubation time: 72 h
How it was run: as §3

DU-4475 [16] = assay: as above; details: incubation time: 72 h
How it was run: as §3

MDA-MB-468 [17] = assay: as above; details: incubation time: 72 h
How it was run: as §3

CAL-120 [18] = assay: as above; details: incubation time: 72 h
How it was run: as §3

MDA-MB-453 [19] = assay: as above; details: incubation time: 72 h
How it was run: as §3

CAL-148 [20] = assay: as above; details: incubation time: 72 h
How it was run: as §3

HDQ-P1 [21] = assay: as above; details: incubation time: 72 h
How it was run: as §3

HCC1599 [22] = assay: as above; details: incubation time: 72 h
How it was run: as §3

BT-474 [23] = assay: as above; details: incubation time: 72 h
How it was run: as §3

BT-549 [24] = assay: as above; details: incubation time: 72 h
How it was run: as §3

SK-BR-3 [25] = assay: as above; details: incubation time: 72 h
How it was run: as §3

HCC1143 [26] = assay: as above; details: incubation time: 72 h
How it was run: as §3

MDA-MB-231 [27] = assay: normalised response (% of control), CellTiter-Glo; higher = more viable cells (100 = DMSO, 0 = benzethonium chloride kill control); details: incubation time: 72 h
How it was run: (§4)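 Each entry is the normalised signal at a single concentration within a series. The series comprised 5 concentrations in 10-fold steps over a compound-specific 10,000-fold range, placed in 384-well plates into which breast cancer cell lines were seeded as 20 µl suspension and incubated 72 h. CellTox Green (485/520 nm) fluorescence and then CellTiter-Glo luminescence were read, with signals normalised per plate to 0.1 % DMSO (100) and a positive kill control (0).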

HCC1937 [28] = assay: as above; details: incubation time: 72 h
How it was run: as §4

Hs578T [29] = assay: as above; details: incubation time: 72 h
How it was run: as §4

CAL-51 [30] = assay: as above; details: incubation time: 72 h
How it was run: as §4

CAL-85-1 [31] = assay: as above; details: incubation time: 72 h
How it was run: as §4

MFM-223 [32] = assay: as above; details: incubation time: 72 h
How it was run: as §4

MDA-MB-436 [33] = assay: as above; details: incubation time: 72 h
How it was run: as §4

DU-4475 [34] = assay: as above; details: incubation time: 72 h
How it was run: as §4

MDA-MB-468 [35] = assay: as above; details: incubation time: 72 h
How it was run: as §4

CAL-120 [36] = assay: as above; details: incubation time: 72 h
How it was run: as §4

MDA-MB-453 [37] = assay: as above; details: incubation time: 72 h
How it was run: as §4

CAL-148 [38] = assay: as above; details: incubation time: 72 h
How it was run: as §4

HDQ-P1 [39] = assay: as above; details: incubation time: 72 h
How it was run: as §4

HCC1599 [40] = assay: as above; details: incubation time: 72 h
How it was run: as §4

BT-474 [41] = assay: as above; details: incubation time: 72 h
How it was run: as §4

BT-549 [42] = assay: as above; details: incubation time: 72 h
How it was run: as §4

MCF-10A [43] = assay: as above; details: incubation time: 72 h
How it was run: as §4

SK-BR-3 [44] = assay: as above; details: incubation time: 72 h
How it was run: as §4

HCC1143 [45] = assay: as above; details: incubation time: 72 h
How it was run: as §4

Compound: CCC(C)(C)C(=O)O[C@H]1C[C@@H](C)C=C2C=C[C@H](C)[C@H](CC[C@@H]3C[C@@H](O)CC(=O)O3)[C@H]21 [Simvastatin]
- EC50, CellTox Green (MDA-MB-231 [1]): 1680 nM
- EC50, CellTox Green (MDA-MB-468 [2]): 511 nM
- EC50, CellTox Green (MCF-10A [3]): 2590 nM
- EC50, CellTiter-Glo (MDA-MB-231 [4]): 3150 nM
- EC50, CellTiter-Glo (HDQ-P1 [5]): 1700 nM
- EC50, CellTiter-Glo (BT-474 [6]): 1200 nM
- EC50, CellTiter-Glo (BT-549 [7]): > 10000 nM
- EC50, CellTiter-Glo (MCF-10A [8]): 6390 nM

Compound: Oc1nc(-c2ccc(C(F)(F)F)cc2)nc2c1CSCC2 [XAV-939] (1 nM)
- normalised viability (MDA-MB-231 [9]): 100%
- normalised viability (HCC1937 [10]): 84%
- normalised viability (Hs578T [11]): 89.6%
- normalised viability (CAL-51 [12]): 102%
- normalised viability (CAL-85-1 [13]): 93.8%
- normalised viability (MFM-223 [14]): 107%
- normalised viability (MDA-MB-436 [15]): 119%
- normalised viability (DU-4475 [16]): 119%
- normalised viability (MDA-MB-468 [17]): 104%
- normalised viability (CAL-120 [18]): 97.7%
- normalised viability (MDA-MB-453 [19]): 106%
- normalised viability (CAL-148 [20]): 101%
- normalised viability (HDQ-P1 [21]): 97.3%
- normalised viability (HCC1599 [22]): 141%
- normalised viability (BT-474 [23]): 84.9%
- normalised viability (BT-549 [24]): 99.4%
- normalised viability (SK-BR-3 [25]): 99.3%
- normalised viability (HCC1143 [26]): 97.6%
- normalised response (MDA-MB-231 [27]): 101%
- normalised response (HCC1937 [28]): 97.2%
- normalised response (Hs578T [29]): 97.1%
- normalised response (CAL-51 [30]): 97.6%
- normalised response (CAL-85-1 [31]): 104%
- normalised response (MFM-223 [32]): 102%
- normalised response (MDA-MB-436 [33]): 107%
- normalised response (DU-4475 [34]): 104%
- normalised response (MDA-MB-468 [35]): 99.1%
- normalised response (CAL-120 [36]): 97.1%
- normalised response (MDA-MB-453 [37]): 97.6%
- normalised response (CAL-148 [38]): 92.4%
- normalised response (HDQ-P1 [39]): 98.9%
- normalised response (HCC1599 [40]): 95.8%
- normalised response (BT-474 [41]): 99.7%
- normalised response (BT-549 [42]): 95.8%
- normalised response (MCF-10A [43]): 101%
- normalised response (SK-BR-3 [44]): 99.2%
- normalised response (HCC1143 [45]): 100%
